Data from patent publication US20020182239A1, “Composition and method for inhibiting polar capsule discharge and protecting a subject from nematocyst sting” (priority 2002, published 2002).
Like-named read-outs stand apart in the source and are kept apart here.

Legend:
[1] = tested on: isolated nematocyst capsules; details: 50 mM CaCl2; cited from earlier work
[2] = tested on: jellyfish Rhopilema nomadica nematocysts

Compound | discharge of isolated nematocyst capsules [1] | nematocysts in skin treated with ointment base alone relative to skin treated with formalin ([2]; 0.1% formalin) | decrease in nematocysts skin penetration ([2]; 0.1% formalin in ointment base vs ointment base alone) | nematocyst discharge and skin penetration ([2]; formalin concentration 0.01%) | nematocyst discharge and skin penetration ([2]; formalin concentration 0.05%) | average number of nematocysts counted on a skin sample ([2]; ointment base containing 0.1% formalin, human skin sections, tentacles 10 seconds)
[Ca+2].[Cl-].[Cl-] [CaCl2] | do not discharge | – | – | – | – | –
C=O [formalin] | – | more than 5 times | over 80% | reduces nematocyst discharge and skin penetration | reduces nematocyst discharge and skin penetration | 5+/−4 nematocysts
